Measured values from DBAASP.
Values after ≈ are worked out from the molar mass of the structure shown. Values joined by “and” are separate entries in the source; they are usually repeats but may differ in a detail not shown here. Equal entries are not always repeated. One block for each molecule: values may come before it.

What was measured:
Assay in all cases: ≥ marks a high value that may be exact or a test limit, other limits are often not marked, values filed in µg/mL are converted to µM
[1] = test system: Enterobacter cloacae 218R
[2] = test system: Enterococcus faecalis ATCC 29212
[3] = test system: Enterococcus faecalis W61950
[4] = test system: Enterococcus faecalis f43559
[5] = test system: Enterococcus faecium mic80
[6] = test system: Enterococcus faecium t62764
[7] = test system: Escherichia coli ESBL 63103
[8] = test system: Escherichia coli ESBL 64771
[9] = test system: Klebsiella pneumoniae ESBL 61962
[10] = test system: Klebsiella pneumoniae ESBL 63575
[11] = test system: Pseudomonas aeruginosa 198
[12] = test system: Pseudomonas aeruginosa 213
Pseudomonas aeruginosa 9 = test system: Pseudomonas aeruginosa 9
[13] = test system: Pseudomonas aeruginosa H1027
[14] = test system: Pseudomonas aeruginosa H1030
[15] = test system: Pseudomonas aeruginosa LES400
[16] = test system: Pseudomonas aeruginosa PAO1 H103
[17] = test system: Staphylococcus aureus ATCC 25923
[18] = test system: Staphylococcus aureus C623
[19] = test system: Stenotrophomonas maltophilia ATCC 13637
Bacillus subtilis 168 = test system: Bacillus subtilis 168
[20] = test system: Escherichia coli ATCC 25922
Escherichia coli B = test system: Escherichia coli B
Escherichia coli ST131 = test system: Escherichia coli ST131
[21] = test system: Klebsiella pneumoniae ST258
Pseudomonas aeruginosa = test system: Pseudomonas aeruginosa
Staphylococcus aureus = test system: Staphylococcus aureus
[22] = test system: Candida albicans ATCC 200955
[23] = test system: Enterococcus faecium ATCC 700221
[24] = test system: Pseudomonas aeruginosa ATCC 27853
[25] = test system: Staphylococcus aureus ATCC 33591
[26] = test system: Bacillus subtilis ATCC 6633
[27] = test system: Klebsiella pneumoniae ATCC 10031
[28] = test system: Micrococcus luteus ATCC 10240
[29] = test system: Salmonella enterica subsp. enterica serovar Typhimurium ATCC 14028
[30] = test system: Shigella dysenteriae ATCC 9752
[31] = test system: Staphylococcus aureus ATCC 6538P
[32] = test system: Staphylococcus aureus TK784
[33] = test system: Staphylococcus epidermidis ATCC 12228
Candida albicans 820 = test system: Candida albicans 820
Escherichia coli ML-35p = test system: Escherichia coli ML-35p
[34] = test system: Listeria monocytogenes EGD
[35] = test system: Alcaligenes faecalis ATCC 8750
[36] = test system: Bacillus subtilis CCT 2471
Bacillus thuringiensis = test system: Bacillus thuringiensis
Candida albicans MDM8 = test system: Candida albicans MDM8
Candida albicans = test system: Candida albicans
[37] = test system: Escherichia coli CCT 1371
Escherichia coli SBS 363 = test system: Escherichia coli SBS 363
[38] = test system: Klebsiella pneumoniae ATCC 13883
Micrococcus luteus A270 = test system: Micrococcus luteus A270
[39] = test system: Salmonella enterica subsp. arizonae ATCC 13314
[40] = test system: Staphylococcus aureus CCT 6538
[41] = test system: Staphylococcus saprophyticus

MIC (Bacillus subtilis 168): 1.3 µM (≈ 1.87 µg/mL)
MIC [20]: 2 µM (≈ 2.88 µg/mL)
MIC (Escherichia coli B): 1.8 µM (≈ 2.59 µg/mL)
MIC (Escherichia coli ST131): 2 µM (≈ 2.88 µg/mL)
MIC [21]: ≥ 32 µM
MIC (Pseudomonas aeruginosa): 14.2 µM (≈ 20.4 µg/mL)
MIC (Staphylococcus aureus): 60 µM (≈ 86.3 µg/mL)
SMILES: CC[C@H](C)[C@H](NC(=O)[C@H](CC(C)C)NC(=O)[C@H](CCCCN)NC(=O)CNC(=O)[C@H](CC(C)C)NC(=O)[C@@H](NC(=O)[C@H](CCCCN)NC(=O)[C@H](CCCCN)NC(=O)[C@H](Cc1c[nH]c2ccccc12)NC(=O)[C@H](CCCCN)NC(=O)CN)[C@@H](C)CC)C(=O)N[C@@H](CCCN=C(N)N)C(N)=O [GKWKKILGKLIR]

MIC [22]: ≥ 85.3 µM
MIC [23]: ≥ 66.3 µM
MIC [24]: 28.4 µM (≈ 33.5 µg/mL)
MIC [17]: 4.23 µM (≈ 5 µg/mL)
MIC [25]: ≥ 256 µM
SMILES: CC[C@H](C)[C@H](NC(=O)[C@H](CCCN=C(N)N)NC(=O)[C@H](CCCCN)NC(=O)[C@H](CC(C)C)NC(=O)[C@H](CC(C)C)NC(=O)CN)C(=O)N[C@@H](CCCCN)C(=O)N[C@@H](CCCCN)C(=O)N[C@@H](CC(C)C)C(=O)N[C@@H](CC(C)C)C(N)=O [GLLKRIKKLL]

MIC [35]: ≥ 40 µM
MIC [26]: 6.2 µM (≈ 7.78 µg/mL)
MIC [36]: 8 µM (≈ 10 µg/mL)
MIC (Bacillus thuringiensis): 20 µM (≈ 25.1 µg/mL)
MIC (Candida albicans MDM8): 0.8 µM (≈ 1 µg/mL)
MIC (Candida albicans): 20 µM (≈ 25.1 µg/mL)
MIC [20]: 40 µM (≈ 50.2 µg/mL)
MIC [37]: 20 µM (≈ 25.1 µg/mL)
MIC (Escherichia coli SBS 363): 1.6 µM (≈ 2.01 µg/mL)
MIC [38]: ≥ 40 µM
MIC (Micrococcus luteus A270): 0.8 µM (≈ 1 µg/mL)
MIC [24]: 1.6 µM (≈ 2.01 µg/mL)
MIC [39]: 25 µM (≈ 31.4 µg/mL)
MIC [40]: 4 µM (≈ 5.02 µg/mL)
MIC [41]: 20 µM (≈ 25.1 µg/mL)
SMILES: CC[C@H](C)[C@H](NC(=O)[C@H](CC(C)C)NC(=O)[C@H](CO)NC(=O)[C@H](CC(C)C)NC(=O)[C@H](CC(C)C)NC(=O)[C@@H](N)CO)C(=O)N[C@@H](CCCN=C(N)N)C(=O)N[C@@H](CCCCN)C(=O)N[C@@H](CC(C)C)C(=O)N[C@H](C(=O)N[C@H](C(N)=O)[C@@H](C)O)[C@@H](C)CC [SLLSLIRKLIT]

More lines, now with the values behind:

SMILES: CC[C@H](C)[C@H](NC(=O)[C@H](C)N)C(=O)N[C@@H](CCCN=C(N)N)C(=O)N[C@@H](CCCN=C(N)N)C(=O)N[C@@H](Cc1c[nH]c2ccccc12)C(=O)N[C@@H](CCCN=C(N)N)C(=O)N[C@H](C(=O)N[C@@H](CCCN=C(N)N)C(=O)N[C@@H](CCCCN)C(=O)O)[C@@H](C)CC [AIRRWRIRK]
MIC [1]: ≥ 68.6 µM
MIC [2]: > 137 µM
MIC [3]: ≥ 137 µM
MIC [4]: ≥ 137 µM
MIC [5]: ≥ 68.6 µM
MIC [6]: 8.77 µM (≈ 11 µg/mL)
MIC [7]: ≥ 68.6 µM
MIC [8]: ≥ 68.6 µM
MIC [9]: ≥ 137 µM
MIC [10]: ≥ 137 µM
MIC [11]: ≥ 137 µM
MIC [12]: ≥ 137 µM
MIC (Pseudomonas aeruginosa 9): ≥ 137 µM
MIC [13]: ≥ 137 µM
MIC [14]: ≥ 137 µM
MIC [15]: ≥ 137 µM
MIC [16]: ≥ 137 µM
MIC [17]: 34.3 µM (≈ 43 µg/mL)
MIC [18]: ≥ 34.3 µM
MIC [19]: ≥ 68.6 µM

SMILES: CC(C)C[C@H](NC(=O)[C@H](CC(C)C)NC(=O)[C@H](CCCCN)NC(=O)[C@H](CCCCN)NC(=O)[C@H](CC(C)C)NC(=O)[C@H](Cc1c[nH]c2ccccc12)NC(=O)[C@H](CCCCN)NC(=O)[C@H](CC(C)C)NC(=O)[C@@H](N)CC(C)C)C(=O)N[C@@H](CCCCN)C(=O)N[C@@H](CCCCN)C(N)=O [LLKWLKKLLKK]
MIC [26]: 1.42 µM (≈ 2 µg/mL)
MIC [20]: 2.84 µM (≈ 4 µg/mL)
MIC [27]: 2.84 µM (≈ 4 µg/mL)
MIC [28]: 2.84 µM (≈ 4 µg/mL)
MIC [24]: 2.84 µM (≈ 4 µg/mL)
MIC [29]: 2.84 µM (≈ 4 µg/mL)
MIC [30]: 1.42 µM (≈ 2 µg/mL)
MIC [31]: 1.42 µM (≈ 2 µg/mL)
MIC [32]: 11.3 µM (≈ 16 µg/mL)
MIC [33]: 1.42 µM (≈ 2 µg/mL)

SMILES: CC[C@H](C)[C@@H]1NC(=O)[C@H](CCCN=C(N)N)NC(=O)[C@@H]2CSSC[C@@H]3NC(=O)[C@H](C(C)C)NC(=O)CNC(=O)[C@H](Cc4ccccc4)NC(=O)[C@H](Cc4ccc(O)cc4)NC(=O)[C@H](C(C)C)NC(=O)[C@H](CCC(=O)O)NC(=O)[C@H](CC(C)C)NC(=O)CNC(=O)[C@H](CC(C)C)NC(=O)[C@H](CSSC[C@H](NC(=O)[C@H](CCCN=C(N)N)NC(=O)[C@H](CCCN=C(N)N)NC(=O)[C@H](C)NC(=O)[C@H](CC(C)C)NC(=O)[C@H](CCCN=C(N)N)NC(=O)CNC(=O)[C@H](Cc4cnc[nH]4)NC(=O)[C@H](CC(C)C)NC(=O)[C@H](Cc4ccccc4)NC3=O)C(=O)N[C@H](C(=O)N[C@@H](CCCN=C(N)N)C(=O)O)CSSC[C@H](NC(=O)[C@@H](NC(=O)[C@H](CCCN=C(N)N)NC(=O)[C@@H](N)CCCN=C(N)N)[C@@H](C)CC)C(=O)N[C@@H](CCCN=C(N)N)C(=O)N2)NC(=O)[C@H](CCCN=C(N)N)NC(=O)CNC1=O [RRICRCRIGRCLGLEVYFGVCFLHGRLARRCCR]
MIC (Candida albicans 820): 2.3 µM and 4.5 µM
MIC (Escherichia coli ML-35p): 1.6 µM and 3.5 µM
MIC [34]: 1.3 µM and 1.8 µM
